# Numbered stars: 1 amine (or outer) side, 2 acyl side, 3 side chain; on linkers, the order of the positions; unused ones are H or OH. Bridge positions count the residues as written; N and C are the ends. Square brackets hold non-standard residues; d marks the D form. Peptide text beside a SMILES is read from it. * marks the point of attachment. Orn(4R-OH,5R-OH) = O=C([C@H](C[C@@H](O)[C@@H](O)N[*:3])N[*:1])[*:2]; Tetradecanoyl(10R,12S-Me2) = CC[C@H](C)C[C@H](C)CCCCCCCCC(=O)*; hTyr(3S-OH,4S-OH) = N[C@H](C(=O)O)[C@H](O)[C@@H](O)c1ccc(O)cc1; Gln(3R-OH) = NC(=O)C[C@@H](O)[C@H](N)C(=O)O; Pro(3S-OH) = O=C(O)[C@H]1NCC[C@@H]1O; Hyp = O=C(O)[C@@H]1C[C@@H](O)CN1
# Assays:
# [1] = test system: Human immunodeficiency virus 1; test: microbe, parasite or virus in culture; conditions: Human immunodeficiency virus 1, LAV
# [2] = Oral bioavailability in human; assay type: ADME, organism-based; conditions: in vivo
# [3] = Inhibition of Leukotriene B4 production in human blood Polymorphonuclear neutrophil cells; assay type: functional, tissue-based
# [4] = Aqueous solubility of compound; assay type: physicochemical; conditions: aqueous (not further specified)
# [5] = test system: Escherichia coli; test: Inhibition of Escherichia coli beta-lactamase at 1 uM relative to control
# [6] = Oral bioavailability in rat; assay type: ADME, organism-based; conditions: in vivo
# [7] = target: Human immunodeficiency virus type 1 protease (Human immunodeficiency virus 1, UniProt Q72874); test: Inhibition of HIV-1 protease
# [8] = Aqueous stability of the compound assessed as acid-catalyzed decomposition by measuring rate constant; assay type: physicochemical; conditions: buffer
# [9] = test system: Hepatitis C virus; test: Antiviral activity against Hepatitis C virus genotype 1a harboring NS5A Y93H mutant; assay type: functional, organism-based, Hepacivirus hominis
# [10] = Stability of the compound in 1M HCL buffer assessed as drug degradation by measuring rate constant by FRET-based assay; assay type: physicochemical
# [11] = Stability of the compound in 20% aqueous dioxane solution at 30 degreeC assessed as compound hydrolysis by measuring rate constant; assay type: physicochemical; conditions: buffer
# [12] = Dissociation constant, pKa of the compound; assay type: physicochemical
# [13] = Inhibition of Calcium channel (unknown origin); set-up: species or system Homo sapiens
# [14] = test system: Pasteurella multocida; test: Antibacterial activity against Pasteurella multocida 59A0067 assessed as inhibition of bacterial growth by microdilution method; assay type: functional
# [15] = test system: Staphylococcus aureus; test: Antibacterial activity against Staphylococcus aureus 01A0785 assessed as inhibition of bacterial growth by microdilution method; assay type: functional
# [16] = test system: Escherichia coli; test: Antibacterial activity against Escherichia coli 51A0150 assessed as inhibition of bacterial growth by microdilution method; assay type: functional
# [17] = test system: Candida albicans; test: Fungicidal activity against Candida albicans; assay type: functional
# [18] = test system: Candida albicans; test: Antifungal activity against Candida albicans GS; assay type: functional, organism-based
compound,measurement,setting,value
Nc1nc(=O)n([C@@H]2CS[C@H](CO)O2)cc1F [EMTRICITABINE],EC50,[1],8 nM
same,bioavailability,[2],60%
O=C1OCc2c1cc1cc(OCc3cccc(C4(O)CC5COC(C4)O5)c3)ccc1c2-c1ccccc1 (configuration not stated),IC50,[3],6 nM
CC(C)[C@H](N)C(=O)OCC(CO)OCn1cnc2c(=O)nc(N)[nH]c21 (some centres not stated) [VALGANCICLOVIR],solubility,[4],70 mg/mL
same,bioavailability,[2],65%
CC1(C)[C@H](C(=O)O)N2C(=O)/C(=C/c3ccccn3)[C@H]2S1(=O)=O,inhibition,[5],100%
C1CCC2(CC1)OOC1(O2)C2CC3CC(C2)CC1C3 (configuration not stated),solubility,[4],< 0.001 mg/mL
same,bioavailability,[6],< 1%
COc1ccc(S(=O)(=O)N(CC(C)C)C[C@@H](O)[C@H](Cc2ccccc2)NC(=O)O[C@H]2CO[C@H]3O[C@@H]4OCC[C@@H]4[C@H]32)cc1,IC50,[7],1.8 nM
CC(C)[C@H](N)C(=O)OCCOCn1cnc2c(=O)[nH]c(N)nc21 [VALACYCLOVIR],solubility,[4],174 mg/mL
same,bioavailability,[2],54%
Cc1ccc(C2OCCS2)cc1 (configuration not stated),K,[8],0.146 min⁻¹
COC(=O)N[C@H](C(=O)N1CCC[C@H]1c1ncc(-c2cc(F)c3c(c2)O[C@@H](c2cnc(C4CC4)s2)n2c-3cc3cc(-c4cnc([C@@H]5CCCN5C(=O)[C@@H](NC(=O)OC)C(C)C)[nH]4)ccc32)[nH]1)C(C)C [RUZASVIR],EC50,[9],0.06 nM
CC1(C)[C@H](C(=O)O)N2C(=O)/C(=C/c3ccccc3)[C@H]2S1(=O)=O,inhibition,[5],28%
O=C1CCC2(CC1)OOC1(O2)C2CC3CC(C2)CC1C3 (configuration not stated),solubility,[4],< 0.001 mg/mL
same,bioavailability,[6],< 1%
COc1cc(/N=N/c2ccc([N+](=O)[O-])cc2)c(OC)cc1/N=N/c1ccc(N(C)CCCC(=O)NCCSC2CC(=O)N(CCC3OCC(C(=O)NCCCNC(=O)c4ccc(-c5c6ccc(=[N+](C)C)cc-6oc6cc(N(C)C)ccc56)c(C(=O)[O-])c4)O3)C2=O)cc1 (configuration not stated),K,[10],4.61 10^-6/s
Clc1ccc(C2OCCS2)cc1 (configuration not stated),K,[8],0.00978 min⁻¹
CCOC(OCC)(c1ccccc1)c1ccccc1,K,[11],4.3 10^-1/M/s
FC(F)(F)c1cc(CO[C@H]2CCCN[C@H]2c2ccccc2)cc(C(F)(F)F)c1,pKa,[12],8.3
same,IC50,[13],780 nM
Cc1ccc(C2(c3ccc(C)cc3)OCCO2)cc1,K,[11],1.7 10^-1/M/s
CC[C@H]1OC(=O)[C@H](C)[C@@H](O[C@H]2C[C@@](C)(OC)[C@@H](O)[C@H](C)O2)[C@H](C)[C@@H](O[C@@H]2O[C@H](C)C[C@H](N(C)C)[C@H]2O)[C@](C)(O)C[C@@H](C)CN(C)[C@H](C)[C@@H](O)[C@]1(C)O [AZITHROMYCIN],MIC,[14],0.1 mg/L
same,MIC,[15],0.2 mg/L
same,MIC,[16],1.56 mg/L
COc1cc(/N=N/c2ccc([N+](=O)[O-])cc2)c(OC)cc1/N=N/c1ccc(N(C)CCCC(=O)NCCSC2CC(=O)N(CC3OCC(C(=O)NCCCNC(=O)c4ccc(C(=O)[O-])c(-c5c6ccc(=[N+](C)C)cc-6oc6cc(N(C)C)ccc56)c4)CO3)C2=O)cc1 (configuration not stated),K,[10],3.8 10^-7/s
Nc1nc(=O)n([C@H]2CS[C@@H](CO)O2)cc1F,EC50,[1],840 nM
CC[C@@H]1C[C@H](O)[C@@H](C)NC[C@H](C)C[C@@]2(C)OC3(CCN(C(=O)c4ccco4)CC3)O[C@@H]([C@H](C)[C@H]2O[C@@H]2O[C@H](C)C[C@H](N(C)C)[C@H]2O)[C@@H](C)C(=O)O1,MIC,[14],0.05 mg/L
same,MIC,[15],0.78 mg/L
same,MIC,[16],0.78 mg/L
O=[N+]([O-])c1ccc(C2OCCS2)cc1 (configuration not stated),K,[8],0.00048 min⁻¹
COc1cc(/N=N/c2ccc([N+](=O)[O-])cc2)c(OC)cc1/N=N/c1ccc(N(C)CCCC(=O)NCCSC2CC(=O)N(CC3CCC(C(=O)NCCCNC(=O)c4ccc(C(=O)[O-])c(-c5c6ccc(=[N+](C)C)cc-6oc6cc(N(C)C)ccc56)c4)CC3)C2=O)cc1 (configuration not stated),K,[10],3.06 10^-7/s
c1ccc(C2(c3ccccc3)OCCO2)cc1,K,[11],3.6 10^-2/M/s
CC(C)CN(C[C@@H](O)[C@H](Cc1ccccc1)NC(=O)O[C@H]1C2CO[C@H]3OCC1C3C2)S(=O)(=O)c1ccc2oc(NC3CC3)nc2c1 (some centres not stated),IC50,[7],0.26 nM
CC(C)(C)NC(=O)[C@@H]1C[C@@H]2CCCC[C@@H]2CN1C[C@@H](O)[C@H](Cc1ccccc1)NC(=O)O[C@H]1CC[C@H]2OCC[C@@H]12,IC50,[7],17 nM
COc1ccc(C2OCCS2)cc1 (configuration not stated),K,[8],0.778 min⁻¹
CC(C)(C)NC(=O)[C@@H]1C[C@@H]2CCCC[C@@H]2CN1C[C@@H](O)[C@H](Cc1ccccc1)NC(=O)O[C@H]1CO[C@H]2CCC[C@H]21,IC50,[7],190 nM
O=C1OCc2c1cc1cc(OCc3cccc(C4(O)CC5CCC(C4)O5)c3)ccc1c2-c1ccccc1 (configuration not stated),IC50,[3],8 nM
"CC[C@H](C)C[C@H](C)CCCCCCCCC(=O)N[C@H]1C[C@@H](O)[C@@H](O)NC(=O)[C@@H]2[C@@H](O)CCN2C(=O)[C@H]([C@H](O)CC(N)=O)NC(=O)[C@H]([C@H](O)[C@@H](O)c2ccc(O)cc2)NC(=O)[C@@H]2C[C@@H](O)CN2C(=O)[C@H]([C@@H](C)O)NC1=O ({Tetradecanoyl(10R,12S-Me2)}-[Orn(4R-OH,5R-OH)]T[Hyp][hTyr(3S-OH,4S-OH)][Gln(3R-OH)][Pro(3S-OH)]; lactam 1-C)",MFC,[17],0.25 mg/L
same,IC50,[18],70 nM
Clc1ccc(C2(c3ccc(Cl)cc3)OCCO2)cc1,K,[11],3.3 10^-3/M/s
c1ccc(C2OCCS2)cc1 (configuration not stated),K,[8],0.0194 min⁻¹
COC(=O)N[C@H](C(=O)N1CCC[C@H]1c1ncc(-c2ccc(-c3cc4cc(-c5cnc([C@@H]6CCCN6C(=O)[C@@H](NC(=O)OC)C(C)C)[nH]5)ccc4o3)cc2)[nH]1)C(C)C,EC50,[9],27 nM
C[C@@H](O[C@H]1OCCN(Cc2n[nH]c(=O)[nH]2)[C@H]1c1ccc(F)cc1)c1cc(C(F)(F)F)cc(C(F)(F)F)c1 [APREPITANT],IC50,[13],> 1000 nM
COC(=O)N[C@H](C(=O)N1CCC[C@H]1c1ncc(-c2ccc3c(c2)CCn2c-3cc3cc(-c4cnc([C@@H]5CCCN5C(=O)[C@@H](NC(=O)OC)C(C)C)[nH]4)ccc32)[nH]1)C(C)C,EC50,[9],170 nM
CC[C@@H]1C[C@H](O)[C@@H](C)NC[C@H](C)C[C@@]2(C)OC3(CCN(Cc4ccccc4)CC3)O[C@@H]([C@H](C)[C@H]2O[C@@H]2O[C@H](C)C[C@H](N(C)C)[C@H]2O)[C@@H](C)C(=O)O1,MIC,[14],0.03 mg/L
same,MIC,[15],0.6 mg/L
same,MIC,[16],0.2 mg/L
CC[C@H](C)C[C@H](C)CCCCCCCCC(=O)N[C@H]1C[C@@H](O)[C@@H](OCCN)NC(=O)[C@@H]2[C@@H](O)CCN2C(=O)[C@H]([C@H](O)CC(N)=O)NC(=O)[C@H]([C@H](O)[C@@H](O)c2ccc(O)cc2)NC(=O)[C@@H]2C[C@@H](O)CN2C(=O)[C@H]([C@@H](C)O)NC1=O,MFC,[17],0.25 mg/L
same,IC50,[18],10 nM
COC(=O)N[C@H](C(=O)N1CCC[C@H]1c1ncc(-c2ccc3c(c2)OCn2c-3cc3cc(-c4cnc([C@@H]5CCCN5C(=O)[C@@H](NC(=O)OC)C(C)C)[nH]4)ccc32)[nH]1)C(C)C,EC50,[9],5 nM
O=C(O)[C@H]1/C(=C/CO)O[C@@H]2CC(=O)N21,inhibition,[5],81%

# From ChEMBL document CHEMBL5244275, “Geminal Diheteroatomic Motifs: Some Applications of Acetals, Ketals, and Their Sulfur and Nitrogen Homologues in Medicinal Chemistry and Drug Design” (J Med Chem, 2021)
